In PubChem BioAssay (NCI):
Where “and” joins values, the source holds several entries; their conditions need not be identical. Equal entries are not always repeated.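 A five-concentration, 48-hour dose response in 96-well plates underlies each endpoint, interpolated linearly between surrounding concentrations. At the GI50, growth is halved. TGI is the concentration that stops growth completely.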

Columns and labels:
Experiment in all cases: inhibition of tumour cell growth, NCI panel, 48 h
A498 renal = test system: A498 renal
A549 NSCLC = test system: A549 NSCLC
HCT-116 colon = test system: HCT-116 colon
HOP-92 NSCLC = test system: HOP-92 NSCLC
NCI-H226 lung = test system: NCI-H226 lung
NCI-H23 lung = test system: NCI-H23 lung
SK-MEL-28 melanoma = test system: SK-MEL-28 melanoma
TK-10 renal = test system: TK-10 renal
U251 CNS = test system: U251 CNS
UO-31 renal = test system: UO-31 renal

Row | Compound | GI50 (A498 renal) | TGI (A498 renal) | GI50 (A549 NSCLC) | TGI (A549 NSCLC) | GI50 (HCT-116 colon) | TGI (HCT-116 colon) | GI50 (HOP-92 NSCLC) | TGI (HOP-92 NSCLC) | GI50 (NCI-H226 lung) | TGI (NCI-H226 lung) | GI50 (NCI-H23 lung) | TGI (NCI-H23 lung) | GI50 (SK-MEL-28 melanoma) | TGI (SK-MEL-28 melanoma) | GI50 (TK-10 renal) | TGI (TK-10 renal) | GI50 (U251 CNS) | TGI (U251 CNS) | GI50 (UO-31 renal) | TGI (UO-31 renal)
1 | CCc1cc(C(N)=O)ccc1-n1nc(C(C)C)c2c(-n3cnc(-c4cnn(C)c4)c3)ccnc21 | 4.99 µM | > 100 µM | 2.18 µM | > 100 µM | 0.554 µM | > 100 µM | 2.3 µM | 14.3 µM | 3.68 µM | > 100 µM | 1.14 µM | > 100 µM | 1.22 µM | > 100 µM | 1.23 µM | > 100 µM | 3.82 µM | > 100 µM | 3.25 µM | > 100 µM
2 | COc1ccc(C(=O)/C=C/c2ccc(Cl)cc2)cc1S(N)(=O)=O | 10.4 µM | 22.1 µM | 2.69 µM | 8.15 µM | 1.36 µM | 2.7 µM | 2.14 µM | 5.78 µM | 3.66 µM | 14.8 µM | 2.54 µM | 7.06 µM | 3.24 µM | 12.7 µM | 2.47 µM | 7.81 µM | 1.96 µM | 4.27 µM | 1.89 µM | 5.76 µM
3 | COc1ccc(NC(=O)c2ccc(NC3=C(Cl)C(=O)N(Cc4ccccc4)C3=O)cc2)cc1 | 16.8 µM | 34.8 µM | 10.4 µM | 29.9 µM | 2.36 µM | 4.89 µM | 3.63 µM | 13.8 µM | 14.5 µM | 35.9 µM | 8.38 µM | 30 µM | 10.1 µM | 31.6 µM | 22.1 µM | 38 µM | 13.3 µM | 30.5 µM | 2.66 µM | 11.3 µM
4 | COc1ccc(NC(=O)CC/C(CC(=O)c2ccco2)=N/Nc2ccc([N+](=O)[O-])cc2[N+](=O)[O-])cc1 |  | > 100 µM |  | > 100 µM |  | > 100 µM |  | > 100 µM |  | > 100 µM |  | > 100 µM |  | > 100 µM |  | > 100 µM |  | > 100 µM |  | > 100 µM
5 | CC[C@]1(O)C[C@@H]2CN(Cc3c([nH]c4ccccc34)[C@@](C(=O)OC)(c3cc4c(cc3OC)N(C)[C@H]3[C@@](O)(C(=O)OC)[C@H](OC(C)=O)[C@]5(CC)[C@@H]6C[C@@H]6CN6CC[C@]43[C@@H]65)C2)C1 | 0.163 µM | > 2.85 µM | 0.234 µM | > 4.38 µM | 0.0351 µM | > 4.38 µM | 0.0314 µM | > 4.38 µM | > 1.44 µM | > 4.38 µM | 0.195 µM | > 4.38 µM | 0.0822 µM | > 4.38 µM | > 3.69 µM | > 4.38 µM | 0.112 µM | > 4.38 µM | > 3.59 µM | > 4.38 µM
6 | Cc1ccc(CCC(=O)Nc2ncc(Cc3cc(Cl)ccc3Cl)s2)o1 | 0.171 µM | 0.801 µM | 0.376 µM | > 58.8 µM | 0.0696 µM | 2.14 µM | 2.33 µM | > 45.3 µM | 0.901 µM |  | 0.471 µM | > 37.7 µM | 1.54 µM | > 100 µM | 2.81 µM | > 66.5 µM | 0.202 µM | 3.39 µM | 0.594 µM | 6.43 µM
7 | Cc1nc2c(cnn2-c2ccnc3c(C(F)(F)F)cccc23)c(=O)o1 | > 100 µM | > 100 µM | > 100 µM | > 100 µM | > 100 µM | > 100 µM | > 100 µM | > 100 µM | > 100 µM | > 100 µM | > 100 µM | > 100 µM | > 100 µM | > 100 µM | > 100 µM | > 100 µM | > 100 µM | > 100 µM | > 100 µM | > 100 µM
8 | O=P(O)(O)OC1C(OP(=O)(O)O)C(OP(=O)(O)O)C(OP(=O)(O)O)C(OP(=O)(O)O)C1OP(=O)(O)O (centres undefined) | > 500 µM and 1190 µM | > 2000 µM | > 2000 µM | > 2000 µM | > 2000 µM | > 2000 µM | > 100 µM | > 1880 µM | > 1070 µM | > 1850 µM | > 2000 µM | > 2000 µM | > 2000 µM | > 2000 µM | > 1360 µM | > 2000 µM | > 2000 µM | > 2000 µM | > 2000 µM | > 2000 µM
9 | O=c1[nH]nc(-c2ccccc2)c(-c2ccccc2)c1-n1nc(-c2ccccc2)c2ccccc2c1=O |  | > 100 µM |  | > 100 µM |  | > 100 µM |  | > 100 µM |  | > 100 µM |  | > 100 µM |  | > 100 µM |  | > 100 µM |  | > 100 µM |  | > 100 µM
10 | C=C1C(=O)OC(CCCCCCCC)C1C(=O)O (centres undefined) | 17.4 µM | 33.3 µM | 23.6 µM | > 67.6 µM | 11.9 µM | 26.2 µM | 12.1 µM | 25.4 µM | 19.8 µM | 48.1 µM | 14.2 µM | 29.2 µM | 15 µM | 29.1 µM | 18.9 µM | 33.6 µM | 15.6 µM | 29.4 µM | 11.7 µM | 25.6 µM
11 | O=C(Nc1ccc(Cl)cc1)NS(=O)(=O)c1ccc2c(c1)CCC2 | 19.1 mg/L | > 100 µM and 38 µg/mL | 11.9 mg/L | 97.7 µM and 31.3 µg/mL | 8.93 mg/L | > 67.3 µM and 27.9 µg/mL | 8.6 mg/L | 31.5 mg/L | 24.1 mg/L | > 77.8 µM and 52.5 µg/mL | 15.6 mg/L | > 56 µM and 36.3 µg/mL | 20.1 mg/L | > 100 µM and 39.3 µg/mL | 21 mg/L | > 95.4 µM and 44.5 µg/mL | 22.5 mg/L | > 77.5 µM and 48.3 µg/mL | 21.5 mg/L | > 76.3 µM and 42 µg/mL
12 | COc1ccccc1/C=C1\COc2ccc(O)c(O)c2C1=O | 3.4 µM | 18 µM | 2.95 µM | > 100 µM | 1.61 µM | 3.99 µM | 2.98 µM | 20.8 µM | 1.9 µM | 5.08 µM | 2.04 µM | 6.11 µM | 1.91 µM | 4.44 µM | 3.08 µM | > 100 µM | 1.57 µM | 3.99 µM | 1.04 µM | 2.24 µM
